Measured values published in US5470858A, “Derivatives of (hetero)aromatic ethers and thioethers having antihyperlipidemic activity, process for their preparation and pharmaceutical compositions containing them” (Pierrel SpA, priority 1991, dated 1995).
Counter-ions that a name gives are not always drawn. Like-named read-outs stand apart in the source and are kept apart here.

Legend:
Format in all cases: in vivo
[1] = test system: hyperlipaemic SD male rats; experiment: Hypolipemizing activity, 5 days experimental model, modified Nath diet; settings: rat, oral; for change in vivo at 100 mg/kg/day / change in vivo at 300 mg/kg/day: 120 h; for Hepatic index (percent variation vs hyperlipaemic controls): index = (Liver weight/body weight) × 100
Description: The hypolipemizing activity of the compounds of the present invention has been evaluated in the rat using SD male animals (Charles River) of an initial weight of 150 g, housed in controlled environment at a temperature of 21°±1° C., relative humidity 60% and a 12 hours light/dark cycle.
Experimental models have been used in which the animals are rendered hiperlipaemic by "ad libitum" food administration with a modified Nath diet (Atherosclerosis 30, 1978, pag. 45-46) having the following composition: […]
hydrogenated coconut oil
In the first model the animals have been fed with this diet for 5 consecutive days, during which they received the pharmacological treatment once a day by oral route and were sacrificed 2 hours after the last administration.
At the time of the sacrifice the blood was removed, for the lipid determination, as well as the liver the weight of which was the index of a possible hepatomegaly.
By this experimental model the concentration of the serum lipids attained very high values which, in the control group, was four times the normal values for the total cholesterol and the triglycerides.
The determination of the triglycerides, of the total cholesterol and of the cholesterol associated to the HDL has been effected by means of a commercial enzymatic kit. The concentration of the cholesterol associated to VLDL+LDL has been determined by difference between total cholesterol and HDL.
The results obtained in the experimental model of the 5 days duration for some compounds representative of the invention are reported in the following table 1. The data are expressed as percent variation with respect to the hyperlipaemic controls to which carboxymethylcellulose as 0.5% in water at the dose of 10 ml/kg/day by oral route was administered. The same vehicle was used for the suspension of the tested compounds at the doses of 100 and 300 mg/kg/day by oral route.

catalase enzyme = experiment: Hepatic tolerability, 15 days at high dose: catalase enzyme activity in liver (index of peroxysomes proliferation); settings: rat liver, 200 mg/kg, standard; absolute values; solvent 539,8
Description: (§1) The hypolipemizing activity of the compounds of the present invention has been evaluated in the rat using SD male animals (Charles River) of an initial weight of 150 g, housed in controlled environment at a temperature of 21°±1° C., relative humidity 60% and a 12 hours light/dark cycle. The animals were fasted with this diet for 15 days consecutively, during which they received the pharmacological treatment once a day by oral route and were sacrificed 24 hours after the last administration. At the sacrifice time the blood was removed for the lipid determination and the liver was removed as well to be weighed and used for the evaluation of the catalase enzyme as the index of the peroxysomes proliferation and thus of hepatotoxicity. In order to evaluate the hepatic tolerability of the compounds of interest they have been administered for 15 days at a high dose (300 mg/kg/day) according to the same conditions of the previous experiment.24 hours after the last treatment the animals have been sacrificed, and the liver has been removed and stored at -20° C. up to the time of dosing the activity of the catalase enzyme (Methods of enzymatic analysis, vol.2, pag. 673, 1974 edit. H. U. Bergmeyer, Verlag Chemie International).

liver = experiment: Hepatic tolerability, 15 days at high dose: hepatic index; settings: rat, 200 mg/kg, standard; absolute values; solvent 5,4
Description: as §1

[2] = 100 mg/kg/day, by difference between total and HDL, read-out: Cholesterol VLDL + LDL (percent variation vs hyperlipaemic controls)
[3] = 100 mg/kg/day, read-out: Cholesterol HDL (percent variation vs hyperlipaemic controls)
[4] = 100 mg/kg/day, read-out: Total Cholesterol (percent variation vs hyperlipaemic controls)
[5] = 100 mg/kg/day, read-out: Triglycerides (percent variation vs hyperlipaemic controls)
[6] = 300 mg/kg/day, by difference between total and HDL, read-out: Cholesterol VLDL + LDL (percent variation vs hyperlipaemic controls)
[7] = 300 mg/kg/day, read-out: Cholesterol HDL (percent variation vs hyperlipaemic controls)
[8] = 300 mg/kg/day, read-out: Total Cholesterol (percent variation vs hyperlipaemic controls)
[9] = 300 mg/kg/day, read-out: Triglycerides (percent variation vs hyperlipaemic controls)

SMILES	change in vivo at 100 mg/kg/day [1, 2]	change in vivo at 100 mg/kg/day [1, 3]	change in vivo at 100 mg/kg/day [1, 4]	change in vivo at 100 mg/kg/day [1, 5]	change in vivo at 300 mg/kg/day [1, 6]	change in vivo at 300 mg/kg/day [1, 7]	change in vivo at 300 mg/kg/day [1, 8]	change in vivo at 300 mg/kg/day [1, 9]	Hepatic index (percent variation vs hyperlipaemic controls) ([1]; 100 mg/kg/day)	Hepatic index (percent variation vs hyperlipaemic controls) ([1]; 300 mg/kg/day)	Catalase enzyme activity (catalase enzyme)	Hepatic index (Liver weight/body weight) × 100 (liver)
CC(C)COC(=O)c1ccc(OCC(=O)CSc2nc3c([nH]2)c(=O)n(C)c(=O)n3C)cc1 [Example 3]	-1.3%	11.7%	-1.1%	-6.5%	-10.7%	3.5%	-10.5%	-5.8%	+3,2%	-1,5%		
CC(C)COC(=O)c1ccc(OCC(O)CSc2nc3cc4ccccc4cc3o2)cc1 (centres unmarked) [Example 15]	17.6%	0.8%	16.5%	5%	-9.8%	13.4%	-8.2%	5.2%	-2,6%	+0,6%		
CC(C)COC(=O)c1ccc(OCC(=O)CSc2nc3ccccc3o2)cc1 [Example 1, 2-[3-[(p-isobutyloxycarbonyl)-phenoxyl]-2-oxo-propylthio]-benzoxazole]	-6.1%	2.6%	-5.7%	-27.6%	-6.4%	17.9%	-5.2%	-18.4%	-8,5%	-2,5%		
CC(C)COC(=O)c1ccc(OCCCSc2nc3c(N)ncnc3n2[C@@H]2O[C@H](CO)[C@@H](O)[C@H]2O)cc1 [Example 25]	-10%	-1.2%	-9.7%	-3.3%	-4.8%	-7.1%	-5.2%	15.7%	-1,1%	-2,8%		
CC(C)COC(=O)c1ccc(OCC(CSc2nc3c(N)ncnc3n2[C@@H]2O[C@H](CO)[C@@H](O)[C@H]2O)=NO)cc1 [Example 31]	-6.6%	3.2%	-0.3%	14.7%	-25.7%	-5.1%	-24.7%	-0.7%	+3,6%	-1,5%		
CC(C)COC(=O)c1ccc(OCC(O)CSc2nc3cc(Cl)ccc3s2)cc1 (centres unmarked) [Example 10, 2-[3-[(p-isobutyloxycarbonyl)-phenoxy]-2-hydroxy-propylthio]5-chloro-benzothiazole]	-20.4%	5.5%	-18.6%	-8.5%	-26.4%	17.3%	-23.3%	-26.3%	-2,2%	-0,6%		
CCOC(=O)C(C)(C)Oc1ccc(Cl)cc1 [Clofibrate, reference compound]											680,9 umoli/min/mg proteins	7,0
CC(C)COC(=O)c1ccc(OCC(O)CSc2nccn2C)cc1 (centres unmarked) [Example 4, 1-methyl-2-[3-[(p-isobutyloxycarbonyl)-phenoxy]-2-hydroxy-propylthio]-imidazole hydrochloride]	9.2%	-3.4%	7.7%	-5.9%	-4%	8.2%	-2.6%	0.2%	+2,2%	+4,3%		
CCOc1ccc2nc(SCC(O)COc3ccc(C(=O)OCC(C)C)cc3)sc2c1 (centres unmarked) [Example 9, 2-[3-[(p-isobutyloxycarbonyl)-phenoxy]-2-hydroxy-propylthio]6-ethoxy-benzothiazole]	0.9%	2.4%	1%	0.9%	-7%	-0.2%	-6.5%	2.8%	-0,8%	-1,2%		
CC(C)COC(=O)c1ccc(OCC(CSc2nc3ccccc3o2)OC(=O)c2cccnc2)cc1 (centres unmarked) [Example 12]	11.5%	12.5%	11.6%	-19%	-8.9%	8.6%	-7.8%	-39.4%	-3,9%	-10,8%		
CC(C)COC(=O)c1ccc(OCC(O)CSc2ncccn2)cc1 (centres unmarked) [Example 5, 2-[3-[(p-isobutyloxycarbonyl)-phenoxy]-2-hydroxy-propylthio]-pirimidine hydrochloride]	24%	-17.7%	22.3%	13.8%	-20.7%	-8.5%	-20.3%	-14.9%	-4,1%	-5,7%		
CC(C)COC(=O)c1ccc(OCC(O)CSc2nc3ccccc3[nH]2)cc1 (centres unmarked) [Example 18]	0.2%	3.2%	1%	-19%	9%	6.5%	9.1%	-13.1%	+3,8%	+3,9%		
CC(C)COC(=O)c1ccc(OCCSc2nc3c(N)ncnc3n2[C@@H]2O[C@H](CO)[C@@H](O)[C@H]2O)cc1 [Example 27]	-14.6%	0.1%	-13.6%	-0.4%	-19.3%	5.7%	-18.4%	-10.2%	+0,8%	+0,7%		
